Laboratory results reported in patent US7977069B2, “DNA encoding a CCK-8S G-protein coupled receptor, and vectors, transformants, cell kits, and methods employing such DNA” (Daiichi Sankyo Company, Limited, priority 2003, dated 2011).

Legend:
variant 3 gene product = assay: Change in intracellular Ca2+ concentration in variant 3 stably expressing cell line; type: cell-based, human; conditions: A23187 20 μM
Protocol: The function of variant 3 gene was analyzed using stably expressing cell line of variant 3 gene by investigating a change in intracellular calcium concentration (Ca^2+) caused by CCK-8S. The change in intracellular calcium concentration (Ca^2+) was measured using the same method described in Example 5. The stably expressing cell line of variant 3 gene was prepared using the variant 3 gene expression vector constructed in Example 7 by the method similar to the method described in Example 7.
(§1) The cell line was seeded in 96-well plates (plates with a black wall surface and transparent bottom) at 3×10^4 cells/100 μL medium/well and cultured overnight at 37° C. in the presence of 5% CO2. The next day, 50 μL of the medium was exited from each well, and 50 μL of loading buffer was added to each well to allow for a reaction at room temperature for 1 h so as to incorporate fluorescent dye contained in the loading buffer into cells. The loading buffer was prepared by the same method as described in Example 5. After the reaction, a change in the fluorescence intensity upon addition of CCK-8S was measured along with time for each well for 40 sec using FLEXstation (Molecular Devices Corp.). CCK-8S was used at a final concentration of 10 pM-1 μM. Further, A23187 was used at a final concentration of 20 μM as a positive control of the assay.

hk01941 gene product = assay: Change in intracellular Ca2+ concentration in hk01941 stably expressing cell line; type: cell-based, human; conditions: A23187 20 μM
Protocol: (§2) Using stably expressing cell line of a splicing variant of ph01207 gene, a change in intracellular calcium concentration (Ca^2+) caused by CCK-8S was measured using the same method described in Example 5. As the stably expressing cell line of the splicing variant of ph01207 gene, the stably expressing cell line constructed in Example 7 was used. Further, using stable expressing cell line of hk01941 gene, the same investigation was conducted. As the stably expressing cell line of hk01941 gene, the stably expressing cell line constructed in Example 7 was used. As a control, a host cell which was not transfected with 7tmHR expression vector or hk01941 expression vector was used.
as §1, with “extracted” for “exited”, “well” for “well for 40 sec”, “CCK-8S was used at a final concentration of 10 pM-1 μM. Further, A23187 was used at a final concentration of 20 μM as a positive control of the assay.” left out

7tmHR gene product = target: T1, 7tmHR gene product (Homo sapiens, UniProt O60241); assay: Change in intracellular Ca2+ concentration in 7tmHR stably expressing cell line; type: cell-based; conditions: A23187 20 μM
T1 construct: three kinds of full length cDNA clones were obtained; expressed in transfected cells; host or cells: CHO-K1 (7tmHR/pcDNA3.1)
Protocol: as §2
as §1, with “extracted” for “exited”, “well” for “well for 40 sec”, “CCK-8S was used at a final concentration of 10 pM-1 μM. Further, A23187 was used at a final concentration of 20 μM as a positive control of the assay.” left out

CHO-K1 cell line = assay: Change in intracellular Ca2+ concentration in non-transfected CHO-K1 host cell line (negative control cells); type: cell-based, Chinese hamster; conditions: for increase in intracellular Ca2+ concentration: CHO-K1 cell line not transfected, peptide final concentration 1 nM (Example 5)
Protocol: (§3) A specific method for measuring a change in intracellular Ca^2+ concentration in the HA-ph01207#10-6 cell line produced by CCK-8S (SEQ ID NO: 14) and the results thereof are described below. HA-ph01207#10-6 cell line was seeded in 96-well plates (plates with a black wall surface and transparent bottom) at a cell count of 2×10^4/100 μL medium/well and cultured at 37° C. in the presence of 5% CO2. DMEM/F12 (Gibco) containing 10% fetal calf serum (Moregate BioTech) was used as medium. The next day, 50 μL of medium was extracted from each well, and 50 μL of loading buffer was added each well and allowed to react at room temperature for 1.5 h so as to incorporate fluorescent dye contained in the loading buffer into cells. The loading buffer was prepared by dissolving component A of the FLIPR Calcium 3 Assay Kit (Molecular Devices Corp.) with a solution in which 0.1 mL of 500 mM probenecid (Sigma) was added to 9.9 mL of component B. After the reaction, a change in the fluorescence intensity upon addition of CCK-BS (Peptide Institute, Osaka, Japan) was measured along with time for each well using FLEXstation (Molecular Devices Corp.). Measurement was also performed in a similar manner for CCK-8NS (Peptide Institute, Osaka, Japan) and CCK-4 (Peptide Institute). For CCK-8S (SEQ ID NO: 14), 0.52 mg thereof was dissolved with 4.5 mL of 1% NaHCO3 (Wako) to prepare a 0.1 mM concentration solution. For CCK-8NS, after dissolving 0.53 mg thereof with 0.50 mL of dimethylsulfoxide (DMSO, Sigma), 4.50 mL of redistilled water was added thereto to prepare a 0.1 mM concentration solution. For CCK-4, after dissolving 0.54 mg thereof with 0.46 mL of DMSO, 4.09 mL of redistilled water was added thereto to prepare a 0.2 mM concentration solution. CCK-8S (SEQ ID NO: 14), CCK-8NS and CCK-4 were each diluted with phosphate buffered saline (PBS) to make a 5 nM solution, and measurement was performed after adding 25 μL (final concentration 1 nM) of each. As a positive control that induces an increase in intracellular Ca^2+ concentration, A23187 (Calbiochem, Calif.) was used at a final concentration of 10 μM. As a negative control, CHO-K1 cell line that was used as a host in production of the HA-ph01207#10-6 cell line was used. Since the ph01207 expression vector was not transfected into the CHO-K1 cell line, the ph01207 gene product was not expressed therein.
as §2
as §1, with “extracted” for “exited”, “well” for “well for 40 sec”, “[…]” for “pM-1”, “assay. […]” for “assay.”

[1] = target: T2, protein encoded by ph01207 (Homo sapiens, UniProt O60241, DEL308-362); assay: Change in intracellular Ca2+ concentration in HA-ph01207#10-6 cell line (FLIPR Calcium 3, FLEXstation); type: cell-based; conditions: for rise in the intracellular Ca2+ concentration: peptide final concentration 1 nM
T2 construct: expressed in transfected cells; host or cells: CHO-K1 (HA-ph01207#10-6, FERM BP-10101)
T2 sequence (O60241 with tags, fused parts or gaps DEL308-362): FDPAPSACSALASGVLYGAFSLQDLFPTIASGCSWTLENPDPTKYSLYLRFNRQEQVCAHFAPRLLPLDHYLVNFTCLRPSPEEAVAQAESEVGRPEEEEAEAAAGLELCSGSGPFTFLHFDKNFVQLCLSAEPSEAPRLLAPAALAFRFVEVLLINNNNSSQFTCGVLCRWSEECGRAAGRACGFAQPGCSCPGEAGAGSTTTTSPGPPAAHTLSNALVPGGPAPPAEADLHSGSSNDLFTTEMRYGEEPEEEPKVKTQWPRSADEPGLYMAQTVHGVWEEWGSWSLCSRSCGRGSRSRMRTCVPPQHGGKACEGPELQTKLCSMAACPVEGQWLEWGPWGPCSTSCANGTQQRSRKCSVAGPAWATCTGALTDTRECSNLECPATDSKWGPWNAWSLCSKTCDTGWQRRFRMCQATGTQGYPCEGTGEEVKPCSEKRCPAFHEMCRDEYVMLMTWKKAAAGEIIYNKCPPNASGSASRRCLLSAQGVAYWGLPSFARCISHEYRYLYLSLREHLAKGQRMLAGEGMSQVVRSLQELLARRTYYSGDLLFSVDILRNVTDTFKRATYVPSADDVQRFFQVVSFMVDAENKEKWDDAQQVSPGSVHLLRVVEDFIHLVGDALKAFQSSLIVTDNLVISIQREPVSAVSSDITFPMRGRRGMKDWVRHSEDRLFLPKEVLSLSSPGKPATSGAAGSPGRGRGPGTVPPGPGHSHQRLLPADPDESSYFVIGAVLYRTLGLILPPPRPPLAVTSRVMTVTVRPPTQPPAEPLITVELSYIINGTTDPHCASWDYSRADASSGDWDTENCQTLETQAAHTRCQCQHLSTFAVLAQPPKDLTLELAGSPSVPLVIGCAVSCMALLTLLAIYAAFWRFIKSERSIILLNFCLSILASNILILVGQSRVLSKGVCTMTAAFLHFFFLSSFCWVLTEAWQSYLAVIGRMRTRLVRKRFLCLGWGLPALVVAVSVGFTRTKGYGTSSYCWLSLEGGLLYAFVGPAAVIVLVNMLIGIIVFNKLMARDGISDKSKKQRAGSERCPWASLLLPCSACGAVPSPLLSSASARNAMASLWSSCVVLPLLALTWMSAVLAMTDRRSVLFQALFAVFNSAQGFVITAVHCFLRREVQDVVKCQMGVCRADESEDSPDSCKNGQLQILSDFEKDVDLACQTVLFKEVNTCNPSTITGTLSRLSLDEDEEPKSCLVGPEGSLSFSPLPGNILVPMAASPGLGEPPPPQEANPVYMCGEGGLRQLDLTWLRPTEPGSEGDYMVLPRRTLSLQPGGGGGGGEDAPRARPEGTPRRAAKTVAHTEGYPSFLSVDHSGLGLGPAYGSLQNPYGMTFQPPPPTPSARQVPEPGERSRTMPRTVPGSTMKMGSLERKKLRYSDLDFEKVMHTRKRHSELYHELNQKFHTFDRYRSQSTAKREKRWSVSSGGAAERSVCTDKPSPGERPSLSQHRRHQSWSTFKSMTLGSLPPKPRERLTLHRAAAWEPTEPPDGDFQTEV
Protocol: Changes in intracellular calcium (Ca^2+) concentrations caused by CCK-8S(SEQ ID NO: 14), CCK-8NS and CCK-4 were determined using the […] expression cell lines prepared in Example 2. The cell lines prepared in Example 2 are eight lines in which the protein encoded by ph01207 expresses as a FLAG-tag fusion protein and four lines in which the protein encoded by ph01207 expresses as a HA-tag fusion protein. Among these, in this example HA-ph01207#10-6 cell line was used as a line obtained by cellular cloning of one cell line that stably expresses the protein encoded by ph01207 as a HA-tag fusion protein. Although CCK-8NS is a CCK octapeptide consisting of the same amino acid sequence as CCK-8S (SEQ ID NO: 14), the seventh tyrosine residue from the C-terminal thereof is not sulfated. CCK-4 is a tetrapeptide consisting of the amino acid residues from the C-terminus to the fourth amino acid residue of CCK-8S (SEQ ID NO: 14).
as §3, with “CCK-8S (SEQ ID NO: 14), CCK-8NS and CCK-4 were each diluted with phosphate buffered saline (PBS) to make a 5 nM solution, and measurement was performed after adding 25 μL (final concentration 1 nM) of each. As a positive control that induces an increase in intracellular Ca^2+ concentration, A23187 (Calbiochem, Calif.) was used at a final concentration of 10 μM. As a negative control, CHO-K1 cell line that was used as a host in production of the HA-ph01207#10-6 cell line was used. Since the ph01207 expression vector was not transfected into the CHO-K1 cell line, the ph01207 gene product was not expressed therein.” left out

[2] = CCK-8S administered to diabetes patients (Bo, A. et al., 2000); cited from earlier work

T1 sequence (O60241 13-1585): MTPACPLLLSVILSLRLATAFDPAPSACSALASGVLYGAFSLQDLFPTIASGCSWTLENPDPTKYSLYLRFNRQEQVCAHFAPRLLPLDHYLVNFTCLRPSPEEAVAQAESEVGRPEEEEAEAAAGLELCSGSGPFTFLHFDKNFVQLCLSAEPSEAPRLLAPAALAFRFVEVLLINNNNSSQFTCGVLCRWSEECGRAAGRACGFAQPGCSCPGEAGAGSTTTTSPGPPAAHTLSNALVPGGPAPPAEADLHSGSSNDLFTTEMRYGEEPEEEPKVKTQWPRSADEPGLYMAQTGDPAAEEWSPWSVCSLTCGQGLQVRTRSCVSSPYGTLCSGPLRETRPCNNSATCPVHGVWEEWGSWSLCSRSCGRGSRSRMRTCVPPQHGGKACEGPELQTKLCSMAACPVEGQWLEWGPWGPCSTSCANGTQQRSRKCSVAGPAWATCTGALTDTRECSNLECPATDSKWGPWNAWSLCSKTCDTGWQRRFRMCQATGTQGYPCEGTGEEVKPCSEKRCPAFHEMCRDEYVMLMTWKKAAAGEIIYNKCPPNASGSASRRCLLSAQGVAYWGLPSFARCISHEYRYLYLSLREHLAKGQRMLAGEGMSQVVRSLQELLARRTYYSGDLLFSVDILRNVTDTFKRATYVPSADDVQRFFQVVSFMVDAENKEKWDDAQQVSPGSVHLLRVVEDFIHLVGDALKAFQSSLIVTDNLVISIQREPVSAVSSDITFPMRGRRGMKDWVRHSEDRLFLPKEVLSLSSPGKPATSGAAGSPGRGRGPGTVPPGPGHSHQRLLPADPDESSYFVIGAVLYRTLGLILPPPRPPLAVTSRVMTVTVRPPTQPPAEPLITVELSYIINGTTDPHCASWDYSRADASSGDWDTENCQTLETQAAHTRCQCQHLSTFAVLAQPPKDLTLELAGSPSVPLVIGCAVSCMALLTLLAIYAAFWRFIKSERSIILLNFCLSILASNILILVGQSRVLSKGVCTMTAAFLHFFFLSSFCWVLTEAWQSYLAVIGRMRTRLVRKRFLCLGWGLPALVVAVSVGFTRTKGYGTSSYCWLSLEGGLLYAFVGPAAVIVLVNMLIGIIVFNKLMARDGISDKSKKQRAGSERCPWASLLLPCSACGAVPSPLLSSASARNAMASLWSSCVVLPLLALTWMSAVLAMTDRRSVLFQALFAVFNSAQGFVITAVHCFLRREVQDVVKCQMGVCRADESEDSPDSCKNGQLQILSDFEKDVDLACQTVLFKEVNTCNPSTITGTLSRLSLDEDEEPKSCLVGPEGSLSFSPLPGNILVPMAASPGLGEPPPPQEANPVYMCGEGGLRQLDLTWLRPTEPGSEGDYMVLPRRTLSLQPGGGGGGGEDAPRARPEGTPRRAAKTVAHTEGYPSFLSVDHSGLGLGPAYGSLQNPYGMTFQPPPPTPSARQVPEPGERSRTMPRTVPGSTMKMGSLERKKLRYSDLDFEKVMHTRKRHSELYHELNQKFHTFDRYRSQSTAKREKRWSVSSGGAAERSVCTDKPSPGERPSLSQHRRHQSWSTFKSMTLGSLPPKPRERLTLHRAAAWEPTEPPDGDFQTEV

CNc1ccc2oc(C[C@H]3O[C@@]4(CC[C@H]3C)O[C@H]([C@H](C)C(=O)c3ccc[nH]3)[C@H](C)C[C@H]4C)nc2c1C(=O)O [A23187]
response (intracellular Ca2+) to positive control (variant 3 gene product): observed similarly
response (intracellular Ca2+) to positive control (hk01941 gene product): observed similarly
response (intracellular Ca2+) to positive control (7tmHR gene product): observed similarly
response (intracellular Ca2+) to positive control (CHO-K1 cell line; CHO-K1 host cell, A23187 20 μM (Examples 8 and 9)): observed similarly

CCK-4: tetrapeptide consisting of the amino acid residues from the C-terminus to the fourth residue of CCK-8S
rise in the intracellular Ca2+ concentration [1]: not observed
increase in intracellular Ca2+ concentration (CHO-K1 cell line): no increase

CCK-8 Nonsulfated form [CCK-8NS]
rise in the intracellular Ca2+ concentration [1]: not observed
increase in intracellular Ca2+ concentration (CHO-K1 cell line): no increase

cholecystokinin octapeptide sulfated form [CCK-8S]
level of increase in the intracellular Ca2+ concentration compared with that produced by A23187 ([1]; 1 nM CCK-8S vs 10 μM A23187): roughly equal
rise in the intracellular Ca2+ concentration [1]: rose
increase in insulin amounts [2]: promoted
increase in postcibal glucose amount [2]: suppressed
increase in intracellular Ca2+ concentration (CHO-K1 cell line): no increase
change in intracellular calcium concentration (CHO-K1 cell line; host cell not transfected with variant 3 expression vector, CCK-8S (Example 9)): not observed
change in intracellular calcium concentration (CHO-K1 cell line; host cell transfected with neither 7tmHR nor hk01941 expression vector, CCK-8S (Example 8)): not observed
